Laboratory results taken from patent US20120095058A1, “Method of preventing survival of retrovirally cells and of inhibiting formation of infectious retroviruses” (priority 2003, published 2012).

Key:
[1] = target: T1, deoxyhypusine hydroxylase (DOHH) (Homo sapiens, UniProt Q9BU89); assay: DOHH activity in HPV-16 infected SiHa cells by metabolic labeling with 3H-spermidine; assay type: cell-based; parameters: inhibition of DOHH: dose or concentration left out as unconfirmed; conditions: for inhibition of DOHH: HPV-positive SiHa cells
T1 construct: endogenous in cells; host or cells: HIV-1 infected H9 cells
T1 sequence (Q9BU89 1-302): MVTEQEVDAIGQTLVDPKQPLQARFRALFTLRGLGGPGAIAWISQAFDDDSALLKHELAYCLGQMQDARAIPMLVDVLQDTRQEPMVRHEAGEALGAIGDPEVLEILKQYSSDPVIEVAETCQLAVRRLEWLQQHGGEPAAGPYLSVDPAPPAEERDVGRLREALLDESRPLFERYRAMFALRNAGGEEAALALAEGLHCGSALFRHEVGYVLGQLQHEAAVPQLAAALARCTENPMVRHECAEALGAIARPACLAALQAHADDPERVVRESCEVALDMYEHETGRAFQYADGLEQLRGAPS
Experimental: (§1) Methods: The drug deferiprone (DEF) and ciclopirox (CPX), known as DOHH inhibitors, were compared to the chelators 2-imidazoyl-4-methylphenol (IMP) and desferal (DES). Apoptosis of HIV-1 infected H9 cells, HPV-16 infected SiHa cells, and uninfected lymphocytes was analyzed by TUNEL flow cytometry. DOHH) activity was measured by metabolic labeling with 3H-spennidine.

HIV-1 infected H9 cells = assay: Apoptosis of HIV-1 infected H9 cells by TUNEL flow cytometry; assay type: cell-based, human; conditions: for apoptosis at maximal concentration: H9 cells, IMP 400 μM, DES 20 μM; for initiation of apoptosis: HIV-1 infected lymphocyte cell line H9, dose dependence
Experimental: as §1

[2] = target: T1, deoxyhypusine hydroxylase (DOHH); assay: DOHH activity in HIV-1 infected H9 cells by metabolic labeling with 3H-spermidine; assay type: cell-based; parameters: inhibition of DOHH: dose or concentration left out as unconfirmed; conditions: for concentration with complete suppression of DOHH activity: H9 cells; for inhibition of cellular DOHH: HIV-1 infected H9 cells, dose dependence
Experimental: as §1
DOHH activity was measured by metabolic labeling with radioactive spermidine (see FIG. 2), followed by protein hydrolysis\ and amino acid analysis as reported (Hanauske-Abel et al., FEBS Left. 366, 92-98, 1995, which is hereby incorporated by reference). This finding corroborates the results obtained with purified DOHH (FIG. 3) and is consistent with the findings presented in FIG. 1.

uninfected lymphocytes = assay: Apoptosis of uninfected lymphocytes by TUNEL flow cytometry; assay type: cell-based, human; conditions: for apoptosis of lymphocytes harvested from healthy volunteers: exposed for 20 hours
Experimental: as §1

purified DOHH = target: T2, purified DOHH (Homo sapiens, UniProt Q9BU89); assay: Inhibition of purified DOHH with labeled deoxyhypusine-containing eIF5A substrate; assay type: biochemical; conditions: FIG. 3
T2 sequence (Q9BU89 1-302): T1 sequence (Q9BU89 1-302)
Experimental: The assay was conducted by using purified enzyme and offering deoxhypusine-containing, deoxhypusine-labeled eIF5A as substrae, plus the appropriate cofactors (see FIG. 2). Enzyme activity was assessed by determining the amount of mature, ie. radioactive hypusine-containing eIF5A via protein hydrolysis, followed by amino acid analysis.

[3] = test system: CMV-Renilla luciferase transcript; assay: RNase protection assay of CMV-Renilla luciferase transcript in transfected 293T cells; assay type: cell-based, human; conditions: 30 μM, FIG. 1B
Experimental: (§2) (A, B) Inhibition of accumulation of spliced and unspliced HIV transcripts. Human 293 T cells were co-transfected with plasmids carrying the HIV-1 molecular clone (10 μg) and a CMV-Renilla luciferase construct (2 μg). Ciclopirox (CPX) or Princeton 2 (P2) were added to a final concentration of 30 μM 3 hours later. RNA was isolated from nuclear and cytoplasmic fractions at 15 hours after transfection. RNase protection assays used probes for the HIV-1 major splice donor site sequence (A), and Renilla luciferase (B). Arrows indicate the positions of protected probe fragments corresponding to unspliced (US) and spliced (S) HIV-1 RNA and Renilla luciferase (R-Luc). Lanes marked ‘Probe’ contain undigested probe RNA equivalent to 10% of the input to protection assays. The radioactivity of the protected bands, quantified with a phosphoimager using ImageQuant, is expressed in relative units.
(§3) Cells and plasmids. 293T cells were grown in Dulbecco's Modified Eagle's medium with 10% fetal bovine serum. pBSIIKS+HIV(+80-341) was constructed by subcloning the PCR-amplified HIV-1 sequence corresponding to nucleotides +80 to +341 of the HIV molecular clone (pNL4-3-Luc E-) between the SmaI and HindIII sites of the pBluescriptllKS+ vector (Stratagene, Calif.). Plasmids pSP-rluc and pCMV-Renilla were purchased from Promega (Madison, Wis.). […]

[4] = test system: peripheral blood mononuclear cells acutely infected with HIV-1; assay: Apoptosis in fresh peripheral blood mononuclear cells acutely infected with a patient isolate of HIV-1; assay type: cell-based, human; conditions: preferentially when acutely infected with HIV-1, FIG. 8
Source text: This effect is ascribed to the suppression of retroviral antiapoptotic proteins as part of the general suppression of retroviral protein synthesis, as exemplified by the decrease in p24 (FIG. 6).

patient-isolate of HIV-1 [5] = assay: HIV-1 p24 and RNA formation in fresh peripheral blood mononuclear cells acutely infected with a patient isolate; assay type: cell-based, human; conditions: acutely infected PBMC
Source text: This system is considered a close model for the actual infection of a human being by ‘wild-type’ HIV-1.

[6] = test system: HIV-1 LTR-firefly luciferase reporter; assay: HIV-1 LTR-firefly luciferase reporter with pRSV-Tat, 293T cells; assay type: cell-based, human; conditions: 30 μM, compared to control and P2, FIG. 1C right
Experimental: (§4) (C) Specificity of inhibition by CPX. Cells were co-transfected with 500 ng pNL4-3-Luc E-, or with 100 ng of HIV-1 LTR-firefly luciferase reporter plasmid and 20 ng of pRSV-Tat, together with 100 ng of CMV-Renilla luciferase reporter plasmid. Buffer (Control), 30 μM ciclopirox (CPX), or 30 μM Princeton 2 (P2) was added during transfection, and cells were harvested at 12 hours post-transfection for luciferase assay. Results are presented as the ratio of firefly luciferase to Renilla luciferase, normalized to the controls, with standard deviations indicated.
(§5) Cells and plasmids. 293T cells were grown in Dulbecco's Modified Eagle's medium with 10% fetal bovine serum. pBSIIKS+HIV(+80-341) was constructed by subcloning the PCR-amplified HIV-1 sequence corresponding to nucleotides +80 to +341 of the HIV molecular clone (pNL4-3-Luc E-) between the SmaI and HindIII sites of the pBluescriptllKS+ vector (Stratagene, Calif.). Plasmids pSP-rluc and pCMV-Renilla were purchased from Promega (Madison, Wis.). The plasmids pRSV-Tat and pLTR-firefly luciferase were described earlier (Hogue et al. MCB 2003). The HIV-1 molecular clone pNL4-3-Luc E-, in which part of the Nef gene is replaced by firefly luciferase and the envelope gene is mutated (Chen B. K., J. Virol. 1994), was generously supplied by Dr. D. Baltimore.
(§6) Gene expression assays. […]

HIV-1 = assay: p24 formation in HIV-1-infected H9 cells by immunoassay; assay type: cell-based, human; conditions: FIG. 5
[7] = test system: HPV-16 infected SiHa cells; assay: Apoptosis of HPV-16 infected SiHa cells by TUNEL flow cytometry; assay type: cell-based, human
Experimental: as §1

[8] = test system: HIV-1 spliced and unspliced transcripts; assay: RNase protection assay of spliced and unspliced HIV-1 transcripts in transfected 293T cells; assay type: cell-based, human; conditions: 30 μM, FIG. 1A
Experimental: as §2, §3

[9] = test system: HIV-1 molecular clone pNL4-3-Luc E-; assay: Firefly luciferase reporter in full-length HIV-1 molecular clone pNL4-3-Luc E-, 293T cells; assay type: cell-based, human; conditions: 30 μM, 12 hours post-transfection, FIG. 1C left
Experimental: as §4, §5, §6

patient-isolate of HIV-1 [10] = assay: HIV-1 p24, RNA and proviral DNA in peripheral blood mononuclear cells chronically infected with a patient isolate; assay type: cell-based, human; conditions: FIG. 9
Experimental: The double y-axis plot of FIG. 9 summarizes the effect of deferiprone on HIV protein synthesis (p24 [left y-axis]), HIV RNA synthesis (copies [right y-axis]), and the presence of HIV DNA, integrated as provirus into the genome of the infected host cells. The cell system and mode of infection used are the same as in FIGS. 6 to 8, i.e. freshly isolated peripheral blood mononuclear cells infected with a patient-isolate of HIV-1, except that the compound was added only after the full-blown infection had developed. The design requires the addition of uninfected cells very second day, so as to keep the infection from burning out. […] The near-eradication of provirus is attributed to the selective apoptotic ablation of HIV-infected cells by DOHH inhibitors (see FIG. 8).

## 2-imidazoyl-4-methylphenol [IMP]
[1]
  inhibition of DOHH: uniformly ineffective
HIV-1 infected H9 cells
  apoptosis at maximal concentration: failed to elicit apoptosis
[2]; HIV-positive H9 cells
  inhibition of DOHH: uniformly ineffective

## CC(=O)N(O)CCCCCNC(=O)CCC(=O)N(O)CCCCCNC(=O)CCC(=O)N(O)CCCCCN [DES]
Uninfected lymphocytes
  apoptosis of lymphocytes harvested from healthy volunteers: failed to respond with apoptosis
HIV-1 infected H9 cells
  apoptosis at maximal concentration: failed to elicit apoptosis

## Cc1cc(C2CCCCC2)n(O)c(=O)c1 [ciclopirox, 6-cyclohexyl-l-hydroxy-4-methyl-2(1H)-pyridone]
Purified DOHH
  inhibition of purified DOHH: disctinctly more susceptible to inhibition
[1]; 40 μM
  DOHH activity of SiHa cells: totally suppressed
[1]; dose dependence
  inhibition of DOHH: inhibited DOHH
[3]
  transcript accumulation encoded by cytomegalovirus (CMV): does not affect transcript accumulation
[4]
  apoptosis in PBMC: triggers apoptosis
patient-isolate of HIV-1 [5]; FIG. 6
  formation of retroviral p24 protein: efficient in suppressing
patient-isolate of HIV-1 [5]; PCR, FIG. 7
  formation of retroviral RNA, viral load: efficient in suppressing
[6]
  luciferase gene expression from HIV-1 LTR reporter lacking RRE: did not reduce luciferase gene expression
HIV-1
  retroviral protein synthesis assessed via p24: suppressed retroviral protein synthesis
Uninfected lymphocytes
  apoptosis in native human lymphocytes not infected by HIV-1: does not trigger apoptosis
  apoptosis of lymphocytes harvested from healthy volunteers: failed to respond with apoptosis
[7]
  apoptosis in HPV infected human keratinocytes: does not trigger apoptosis
[7]; 40 μM, even after 120 hours
  apoptosis in SiHa cells: did not initiate apoptosis
HIV-1 infected H9 cells; 40 μM, 18 hours (overnight), HIV-1 infected H9 cells
  apoptosis, share of all cells: more than 30%
HIV-1 infected H9 cells
  initiation of apoptosis: dose-dependent initiation of apoptosis
HIV-1 infected H9 cells; listed as CPX
  initiation of apoptosis: triggered dose-dependent apoptosis
HIV-1 infected H9 cells; comparison compound class not given
  potency in causing a very similar spectrum of effects: about ten times more potent
[2]
  concentration with complete suppression of DOHH activity: 40 µM
  inhibition of cellular DOHH: dose-dependent inhibition
[2]; listed as (2)
  inhibition of cellular DOHH: dose-dependent inhibition
[2]; listed as CPX
  inhibition of cellular DOHH: inhibited DOHH
[8]
  accumulation of spliced and unspliced HIV-1 transcripts: selectively suppresses
[9]
  expression of firefly luciferase reporter encoded in full-length genomic HIV-1 clone: distinctly more inhibitory effect than P2
[9]; listed as Ciclopirox
  expression of firefly luciferase reporter encoded in full-length genomic HIV-1 clone: reduces gene expression

## Cc1c(O)c(=O)ccn1C [deferiprone]
[1]; dose dependence
  inhibition of DOHH: inhibited DOHH
patient-isolate of HIV-1 [10]; compound added after full-blown infection
  HIV protein synthesis (p24): undetectable
patient-isolate of HIV-1 [10]; end of experiment
  HIV DNA integrated as provirus: at best a trace of integrated provirus
patient-isolate of HIV-1 [10]; over the days after p24 became undetectable
  HIV RNA: dropped to the limit of detection
Uninfected lymphocytes
  apoptosis of lymphocytes harvested from healthy volunteers: failed to respond with apoptosis
HIV-1 infected H9 cells
  initiation of apoptosis: triggered dose-dependent apoptosis
[2]
  concentration with complete suppression of DOHH activity: 200 µM
  inhibition of cellular DOHH: inhibited DOHH
